Measured values reported in PubChem BioAssay AID330 (DTP/NCI, 2004).
Several values for one entry are separate records, joined by “and”; a condition that tells them apart may be missing. Equal entries are not always repeated. Toxic doses and inconclusive results are not listed. Rule for the calls: active = survival T/C of 150% or more; inactive = T/C below 125% in these data.

System: P388 leukemia ip, CD2F1 mice, survival T/C
Assay: NCI In Vivo Anticancer Drug Screen. Data for tumor model P388 Leukemia (intraperitoneal) in CD2F1 (CDF1) mice
Settings: endpoint: median survival time, higher = longer survival
How it was run: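 Mice carrying the transplanted tumor received test compound or vehicle. Survival was recorded in each group, and the value is the treated-group measurement divided by that of the vehicle-treated control group.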

[1] = dose: 60.0 mg/kg/injection, schedule: Q01DX005 (ip), vehicle: Klucel (hydroxypropylcellulose) (HPC)
[2] = dose: 120.0 mg/kg/injection, schedule: Q01DX005 (ip), vehicle: Klucel (hydroxypropylcellulose) (HPC)
[3] = dose: 240.0 mg/kg/injection, schedule: Q01DX005 (ip), vehicle: Klucel (hydroxypropylcellulose) (HPC)
[4] = dose: 50.0 mg/kg/injection, schedule: Q01DX005 (ip), vehicle: saline with Tween-80
[5] = dose: 100.0 mg/kg/injection, schedule: Q01DX005 (ip), vehicle: saline with Tween-80
[6] = dose: 200.0 mg/kg/injection, schedule: Q01DX005 (ip), vehicle: saline with Tween-80
[7] = dose: 25.0 mg/kg/injection, schedule: Q01DX009 (ip), vehicle: saline with Tween-80
[8] = dose: 50.0 mg/kg/injection, schedule: Q01DX009 (ip), vehicle: saline with Tween-80
[9] = dose: 100.0 mg/kg/injection, schedule: Q01DX009 (ip), vehicle: saline with Tween-80
[10] = dose: 60.0 mg/kg/injection, schedule: Q01DX005 (ip), vehicle: saline with Tween-80
[11] = dose: 120.0 mg/kg/injection, schedule: Q01DX005 (ip), vehicle: saline with Tween-80
[12] = dose: 240.0 mg/kg/injection, schedule: Q01DX005 (ip), vehicle: saline with Tween-80
[13] = dose: 12.5 mg/kg/injection, schedule: Q01DX005 (ip), vehicle: Klucel (hydroxypropylcellulose) (HPC)
[14] = dose: 25.0 mg/kg/injection, schedule: Q01DX005 (ip), vehicle: Klucel (hydroxypropylcellulose) (HPC)
[15] = dose: 50.0 mg/kg/injection, schedule: Q01DX005 (ip), vehicle: Klucel (hydroxypropylcellulose) (HPC)
[16] = dose: 50.0 mg/kg/injection, schedule: Q01DX009 (ip), vehicle: Klucel (hydroxypropylcellulose) (HPC)
[17] = dose: 100.0 mg/kg/injection, schedule: Q01DX009 (ip), vehicle: Klucel (hydroxypropylcellulose) (HPC)
[18] = dose: 200.0 mg/kg/injection, schedule: Q01DX009 (ip), vehicle: Klucel (hydroxypropylcellulose) (HPC)
[19] = dose: 200.0 mg/kg/injection, schedule: Q01DX009 (ip), vehicle: saline with Tween-80
[20] = dose: 400.0 mg/kg/injection, schedule: Q01DX009 (ip), vehicle: saline with Tween-80

Measured: T/C

O/N=C/c1c(Cl)nc2sccn12
inactive: dose: 50.0 mg/kg/injection, schedule: Q01DX001 (ip), vehicle: Klucel (hydroxypropylcellulose) (HPC) 100 % of control | dose: 100.0 mg/kg/injection, schedule: Q01DX001 (ip), vehicle: Klucel (hydroxypropylcellulose) (HPC) 100 % of control and 91 % of control | dose: 200.0 mg/kg/injection, schedule: Q01DX001 (ip), vehicle: Klucel (hydroxypropylcellulose) (HPC) 89 % of control and 97 % of control

Nc1[nH]c(=O)[nH]c(=O)c1N=O
inactive: [1] 101 % of control and 96 % of control | [2] 101 % of control and 108 % of control | [3] 104 % of control and 98 % of control

CCOC(=O)c1c(-c2ccccc2)oc2ccc(NS(=O)(=O)c3ccccc3)cc12
inactive: dose: 100.0 mg/kg/injection, schedule: Q01DX001 (ip), vehicle: saline with Tween-80 95 % of control | dose: 200.0 mg/kg/injection, schedule: Q01DX001 (ip), vehicle: saline with Tween-80 104 % of control | dose: 400.0 mg/kg/injection, schedule: Q01DX001 (ip), vehicle: saline with Tween-80 95 % of control

O=C1C2C3C=CC(O3)C2C(=O)N1/N=C\C(O)C(O)C(O)C(O)CO (stereo unspecified)
inactive: [4] 97 % of control | [5] 98 % of control | [6] 95 % of control

O=C(NC1c2ccccc2Oc2ccccc21)OC1CCCCC1
inactive: [4] 92 % of control | [5] 96 % of control | [6] 100 % of control

COc1cc(/C=C2\SC(=S)N(C3CC3)C2=O)ccc1O
inactive: dose: 50.0 mg/kg/injection, schedule: Q01DX009 (ip), vehicle: saline 97 % of control | dose: 100.0 mg/kg/injection, schedule: Q01DX009 (ip), vehicle: saline 107 % of control | dose: 200.0 mg/kg/injection, schedule: Q01DX009 (ip), vehicle: saline 104 % of control and 91 % of control

O=c1[nH]ccc2occc12
inactive: [7] 100 % of control | [8] 100 % of control | [9] 109 % of control

O=C1CCC(NC(=O)c2ccccc2)C(=O)N1 (stereo unspecified)
inactive: dose: 31.25 mg/kg/injection, schedule: Q01DX005 (ip), vehicle: Klucel (hydroxypropylcellulose) (HPC) 102 % of control | [10] 98 % of control | dose: 62.5 mg/kg/injection, schedule: Q01DX005 (ip), vehicle: Klucel (hydroxypropylcellulose) (HPC) 98 % of control | [11] 107 % of control | dose: 125.0 mg/kg/injection, schedule: Q01DX005 (ip), vehicle: Klucel (hydroxypropylcellulose) (HPC) 102 % of control | [12] 100 % of control | dose: 250.0 mg/kg/injection, schedule: Q01DX005 (ip), vehicle: Klucel (hydroxypropylcellulose) (HPC) 100 % of control | dose: 500.0 mg/kg/injection, schedule: Q01DX005 (ip), vehicle: Klucel (hydroxypropylcellulose) (HPC) 92 % of control

CC(=O)OC1C=CC(=O)C1(O)CO (stereo unspecified)
inactive: dose: 2.0 mg/kg/injection, schedule: Q01DX009 (ip), vehicle: saline 97 % of control | dose: 4.0 mg/kg/injection, schedule: Q01DX009 (ip), vehicle: saline 98 % of control | dose: 8.0 mg/kg/injection, schedule: Q01DX009 (ip), vehicle: saline 118 % of control | dose: 16.0 mg/kg/injection, schedule: Q01DX009 (ip), vehicle: saline 116 % of control

CCN(CC)c1ccc(C(=N)c2ccc(N(CC)CC)cc2)cc1
inactive: [13] 101 % of control | [14] 99 % of control | [15] 89 % of control and 90 % of control

O=[N+]([O-])c1ccc2c(c1)nc(-c1ccccn1)n2CCc1ccncc1
inactive: [14] 95 % of control | [15] 94 % of control | dose: 100.0 mg/kg/injection, schedule: Q01DX005 (ip), vehicle: Klucel (hydroxypropylcellulose) (HPC) 92 % of control | dose: 200.0 mg/kg/injection, schedule: Q01DX005 (ip), vehicle: Klucel (hydroxypropylcellulose) (HPC) 91 % of control

Cc1cc(N)ccc1-n1cnc2c1c(=O)n(C)c(=O)n2C
inactive: dose: 50.0 mg/kg/injection, schedule: Q01DX005 (ip), vehicle: water 109 % of control | dose: 100.0 mg/kg/injection, schedule: Q01DX005 (ip), vehicle: water 111 % of control

Cc1ccc(S(=O)(=O)NC(=O)ON2CCCCC2)cc1
inactive: dose: 50.0 mg/kg/injection, schedule: Q01DX009 (ip), vehicle: saline + Tween-80 + alcohol 95 % of control | dose: 100.0 mg/kg/injection, schedule: Q01DX009 (ip), vehicle: saline + Tween-80 + alcohol 95 % of control | dose: 200.0 mg/kg/injection, schedule: Q01DX009 (ip), vehicle: saline + Tween-80 + alcohol 92 % of control

O=C(Nc1ccccc1[N+](=O)[O-])C1C(=O)C(=O)N(c2ccccc2[N+](=O)[O-])C1=O (stereo unspecified)
inactive: [16] 99 % of control | [17] 108 % of control | [18] 99 % of control

[O-][n+]1c(Cl)c(Cl)[n+]([O-])c2[nH]c(C(F)(F)F)nc21
inactive: dose: 25.0 mg/kg/injection, schedule: Q01DX005 (ip), vehicle: saline with Tween-80 103 % of control | [4] 96 % of control | [5] 102 % of control | [6] 90 % of control and 96 % of control

Cc1c(C(N)=O)c(-c2ccccc2)c(-c2ccccc2)n1Nc1ccccc1
inactive: [1] 95 % of control | [2] 96 % of control | [3] 92 % of control

O=C(Nc1ccccc1C(F)(F)F)c1cccc(Cl)c1
inactive: dose: 100.0 mg/kg/injection, schedule: Q04DX003 (ip), vehicle: saline + alcohol 109 % of control | dose: 200.0 mg/kg/injection, schedule: Q04DX003 (ip), vehicle: saline + alcohol 100 % of control | dose: 400.0 mg/kg/injection, schedule: Q04DX003 (ip), vehicle: saline + alcohol 100 % of control

CSc1nc(NC2OC(CO)C(O)C(O)C2O)c(C=O)c(=O)n1C (stereo unspecified)
inactive: [10] 100 % of control | [11] 92 % of control | [12] 91 % of control

CC(C)N(C(=O)C1CCN(Cc2c[nH]c3ccccc23)CC1)C(C)C
inactive: dose: 12.5 mg/kg/injection, schedule: Q01DX009 (ip), vehicle: saline with Tween-80 108 % of control | [7] 101 % of control | [8] 101 % of control | [9] 115 % of control

O=[N+]([O-])c1c(Cl)sc(Cl)c1[N+](=O)[O-]
inactive: dose: 1.56 mg/kg/injection, schedule: Q01DX009 (ip), vehicle: saline with Tween-80 105 % of control | dose: 3.12 mg/kg/injection, schedule: Q01DX009 (ip), vehicle: saline with Tween-80 104 % of control | dose: 6.25 mg/kg/injection, schedule: Q01DX009 (ip), vehicle: saline with Tween-80 87 % of control and 95 % of control | dose: 6.25 mg/kg/injection, schedule: Q04DX003 (ip), vehicle: saline sonified 110 % of control | dose: 12.5 mg/kg/injection, schedule: Q04DX003 (ip), vehicle: saline sonified 100 % of control | dose: 25.0 mg/kg/injection, schedule: Q04DX003 (ip), vehicle: saline sonified 100 % of control

CCOc1ccccc1C(=O)Nc1ccc(Br)cc1
inactive: [16] 100 % of control | [17] 99 % of control | [9] 112 % of control | dose: 100.0 mg/kg/injection, schedule: Q04DX003 (ip), vehicle: saline with Tween-80 100 % of control | [18] 106 % of control | [19] 104 % of control | dose: 200.0 mg/kg/injection, schedule: Q04DX003 (ip), vehicle: saline with Tween-80 100 % of control | dose: 400.0 mg/kg/injection, schedule: Q01DX009 (ip), vehicle: Klucel (hydroxypropylcellulose) (HPC) 97 % of control | [20] 91 % of control | dose: 400.0 mg/kg/injection, schedule: Q04DX003 (ip), vehicle: saline with Tween-80 95 % of control

CC(C)N(C(=S)Sc1c2ccccc2c(Br)c2ccccc12)C(C)C
inactive: [13] 108 % of control | [14] 102 % of control | [15] 99 % of control and 89 % of control

CC1=NN(C(=O)CC(=O)Nc2ccc(C(=O)O)cc2)C(=O)C1N=Nc1ccccc1C(=O)O (stereo unspecified)
inactive: [4] 110 % of control | [5] 111 % of control | [6] 110 % of control

N#CCCC1(CCC#N)CCCC(CCC#N)(CCC#N)C1=O
inactive: [8] 95 % of control | [9] 99 % of control | [19] 87 % of control | [20] 92 % of control
